Laboratory results reported in PubChem BioAssay (NCI).
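Test compounds were applied to cells in 96-well plates for 48 hours at 5 doses. GI50 = concentration required for 50% inhibition of growth. At the TGI there is no net growth.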

Columns and labels:
Test in all cases: inhibition of tumour cell growth, NCI panel, 48 h
OVCAR-3 ovarian = tested on: OVCAR-3 ovarian
EKVX NSCLC = tested on: EKVX NSCLC
HT29 colon = tested on: HT29 colon
SF-268 CNS = tested on: SF-268 CNS
SK-MEL-5 melanoma = tested on: SK-MEL-5 melanoma
CAKI-1 renal = tested on: CAKI-1 renal
SK-MEL-2 melanoma = tested on: SK-MEL-2 melanoma
SN12C renal = tested on: SN12C renal
SNB-75 CNS = tested on: SNB-75 CNS
MALME-3M melanoma = tested on: MALME-3M melanoma
U251 CNS = tested on: U251 CNS
RPMI-8226 leukemia = tested on: RPMI-8226 leukemia
TK-10 renal = tested on: TK-10 renal
IGROV1 ovarian = tested on: IGROV1 ovarian
RXF 393 renal = tested on: RXF 393 renal
PC-3 prostate = tested on: PC-3 prostate
OVCAR-5 ovarian = tested on: OVCAR-5 ovarian
SW-620 colon = tested on: SW-620 colon
MDA-MB-468 breast = tested on: MDA-MB-468 breast
CCRF-CEM leukemia = tested on: CCRF-CEM leukemia
SK-MEL-28 melanoma = tested on: SK-MEL-28 melanoma
NCI/ADR-RES ovarian = tested on: NCI/ADR-RES ovarian
A498 renal = tested on: A498 renal
HCC-2998 colon = tested on: HCC-2998 colon
SF-539 CNS = tested on: SF-539 CNS
HOP-62 NSCLC = tested on: HOP-62 NSCLC
UACC-257 melanoma = tested on: UACC-257 melanoma
786-0 renal = tested on: 786-0 renal
COLO 205 colon = tested on: COLO 205 colon
NCI-H460 lung = tested on: NCI-H460 lung
ACHN renal = tested on: ACHN renal
HCT-116 colon = tested on: HCT-116 colon
SNB-19 CNS = tested on: SNB-19 CNS
NCI-H522 lung = tested on: NCI-H522 lung
OVCAR-4 ovarian = tested on: OVCAR-4 ovarian
MOLT-4 leukemia = tested on: MOLT-4 leukemia
HOP-92 NSCLC = tested on: HOP-92 NSCLC
SR leukemia = tested on: SR leukemia
UACC-62 melanoma = tested on: UACC-62 melanoma
HL-60(TB) leukemia = tested on: HL-60(TB) leukemia
HCT-15 colon = tested on: HCT-15 colon
T-47D breast = tested on: T-47D breast
UO-31 renal = tested on: UO-31 renal
MDA-MB-435 = tested on: MDA-MB-435
MDA-MB-231 breast = tested on: MDA-MB-231 breast
SK-OV-3 ovarian = tested on: SK-OV-3 ovarian
BT-549 breast = tested on: BT-549 breast
NCI-H226 lung = tested on: NCI-H226 lung
DU-145 prostate = tested on: DU-145 prostate
KM12 colon = tested on: KM12 colon
HS 578T breast = tested on: HS 578T breast
M14 melanoma = tested on: M14 melanoma
NCI-H23 lung = tested on: NCI-H23 lung
A549 NSCLC = tested on: A549 NSCLC
OVCAR-8 ovarian = tested on: OVCAR-8 ovarian

**Q.** `Cn1cc(-c2cc(N)n3nc(-c4cn(C)c5ccccc45)cc3n2)c2cc(Br)ccc21` was tested. Which GI50 (OVCAR-3 ovarian) did it give?
**A.** 2220 nM

**Q.** And the TGI (OVCAR-3 ovarian)?
**A.** 5160 nM

**Q.** And the GI50 (EKVX NSCLC)?
**A.** 1750 nM

**Q.** What about the TGI (EKVX NSCLC) of the same molecule?
**A.** 6710 nM

**Q.** What about the GI50 (HT29 colon) of the same molecule?
**A.** 1700 nM

**Q.** And the TGI (HT29 colon)?
**A.** 3250 nM

**Q.** What about the GI50 (SF-268 CNS) of the same molecule?
**A.** 2660 nM

**Q.** And the TGI (SF-268 CNS)?
**A.** 8950 nM

**Q.** And the GI50 (SK-MEL-5 melanoma)?
**A.** 1890 nM

**Q.** And the TGI (SK-MEL-5 melanoma)?
**A.** 3500 nM

**Q.** What about the GI50 (CAKI-1 renal) of the same molecule?
**A.** 1440 nM

**Q.** And the TGI (CAKI-1 renal)?
**A.** 2960 nM

**Q.** What about the GI50 (SK-MEL-2 melanoma) of the same molecule?
**A.** 1680 nM

**Q.** And the TGI (SK-MEL-2 melanoma)?
**A.** 3360 nM

**Q.** What about the GI50 (SN12C renal) of the same molecule?
**A.** 1660 nM

**Q.** And the TGI (SN12C renal)?
**A.** 3180 nM

**Q.** What about the GI50 (SNB-75 CNS) of the same molecule?
**A.** 2410 nM

**Q.** And the TGI (SNB-75 CNS)?
**A.** 9590 nM

**Q.** What about the GI50 (MALME-3M melanoma) of the same molecule?
**A.** 1660 nM

**Q.** What about the TGI (MALME-3M melanoma) of the same molecule?
**A.** 3080 nM

**Q.** And the GI50 (U251 CNS)?
**A.** 1790 nM

**Q.** What about the TGI (U251 CNS) of the same molecule?
**A.** 3650 nM

**Q.** And the GI50 (RPMI-8226 leukemia)?
**A.** 2480 nM

**Q.** And the TGI (RPMI-8226 leukemia)?
**A.** 8150 nM

**Q.** And the GI50 (TK-10 renal)?
**A.** 2190 nM

**Q.** What about the TGI (TK-10 renal) of the same molecule?
**A.** 4810 nM

**Q.** What about the GI50 (IGROV1 ovarian) of the same molecule?
**A.** 1820 nM

**Q.** And the TGI (IGROV1 ovarian)?
**A.** 5070 nM

**Q.** And the GI50 (RXF 393 renal)?
**A.** 1800 nM

**Q.** And the TGI (RXF 393 renal)?
**A.** 3460 nM

**Q.** What about the GI50 (PC-3 prostate) of the same molecule?
**A.** 1870 nM

**Q.** What about the TGI (PC-3 prostate) of the same molecule?
**A.** 4690 nM

**Q.** And the GI50 (OVCAR-5 ovarian)?
**A.** 2550 nM

**Q.** And the TGI (OVCAR-5 ovarian)?
**A.** 7800 nM

**Q.** And the GI50 (SW-620 colon)?
**A.** 2160 nM

**Q.** What about the TGI (SW-620 colon) of the same molecule?
**A.** 5000 nM

**Q.** What about the GI50 (MDA-MB-468 breast) of the same molecule?
**A.** 1570 nM

**Q.** And the TGI (MDA-MB-468 breast)?
**A.** 3730 nM

**Q.** And the GI50 (CCRF-CEM leukemia)?
**A.** 2870 nM

**Q.** What about the TGI (CCRF-CEM leukemia) of the same molecule?
**A.** 11700 nM

**Q.** What about the GI50 (SK-MEL-28 melanoma) of the same molecule?
**A.** 1720 nM

**Q.** And the TGI (SK-MEL-28 melanoma)?
**A.** 3140 nM

**Q.** And the GI50 (NCI/ADR-RES ovarian)?
**A.** 2450 nM

**Q.** What about the TGI (NCI/ADR-RES ovarian) of the same molecule?
**A.** 6770 nM

**Q.** And the GI50 (A498 renal)?
**A.** 1740 nM

**Q.** What about the TGI (A498 renal) of the same molecule?
**A.** 3890 nM

**Q.** And the GI50 (HCC-2998 colon)?
**A.** 1810 nM

**Q.** What about the TGI (HCC-2998 colon) of the same molecule?
**A.** 3490 nM

**Q.** And the GI50 (SF-539 CNS)?
**A.** 1580 nM

**Q.** What about the TGI (SF-539 CNS) of the same molecule?
**A.** 3090 nM

**Q.** And the GI50 (HOP-62 NSCLC)?
**A.** 2240 nM

**Q.** What about the TGI (HOP-62 NSCLC) of the same molecule?
**A.** 6010 nM

**Q.** And the GI50 (UACC-257 melanoma)?
**A.** 1730 nM

**Q.** What about the TGI (UACC-257 melanoma) of the same molecule?
**A.** 3340 nM

**Q.** What about the GI50 (786-0 renal) of the same molecule?
**A.** 1570 nM

**Q.** And the TGI (786-0 renal)?
**A.** 2990 nM

**Q.** And the GI50 (COLO 205 colon)?
**A.** 1950 nM

**Q.** What about the TGI (COLO 205 colon) of the same molecule?
**A.** 3900 nM

**Q.** And the GI50 (NCI-H460 lung)?
**A.** 1960 nM

**Q.** What about the TGI (NCI-H460 lung) of the same molecule?
**A.** 4030 nM

**Q.** And the GI50 (ACHN renal)?
**A.** 1780 nM

**Q.** And the TGI (ACHN renal)?
**A.** 4050 nM

**Q.** What about the GI50 (HCT-116 colon) of the same molecule?
**A.** 1590 nM

**Q.** And the TGI (HCT-116 colon)?
**A.** 2930 nM

**Q.** What about the GI50 (SNB-19 CNS) of the same molecule?
**A.** 3240 nM

**Q.** What about the TGI (SNB-19 CNS) of the same molecule?
**A.** 25900 nM

**Q.** And the GI50 (NCI-H522 lung)?
**A.** 1550 nM

**Q.** And the TGI (NCI-H522 lung)?
**A.** 3210 nM

**Q.** What about the GI50 (OVCAR-4 ovarian) of the same molecule?
**A.** 2460 nM

**Q.** What about the TGI (OVCAR-4 ovarian) of the same molecule?
**A.** 6340 nM

**Q.** And the GI50 (MOLT-4 leukemia)?
**A.** 1600 nM

**Q.** What about the TGI (MOLT-4 leukemia) of the same molecule?
**A.** 7550 nM

**Q.** What about the GI50 (HOP-92 NSCLC) of the same molecule?
**A.** 1480 nM

**Q.** And the TGI (HOP-92 NSCLC)?
**A.** 3160 nM

**Q.** What about the GI50 (SR leukemia) of the same molecule?
**A.** 1700 nM

**Q.** And the TGI (SR leukemia)?
**A.** 7300 nM

**Q.** And the GI50 (UACC-62 melanoma)?
**A.** 1580 nM

**Q.** And the TGI (UACC-62 melanoma)?
**A.** 3050 nM

**Q.** What about the GI50 (HL-60(TB) leukemia) of the same molecule?
**A.** 2080 nM

**Q.** What about the TGI (HL-60(TB) leukemia) of the same molecule?
**A.** 5530 nM

**Q.** And the GI50 (HCT-15 colon)?
**A.** 1710 nM

**Q.** And the TGI (HCT-15 colon)?
**A.** 4590 nM

**Q.** What about the GI50 (T-47D breast) of the same molecule?
**A.** 2070 nM

**Q.** What about the TGI (T-47D breast) of the same molecule?
**A.** 5700 nM

**Q.** What about the GI50 (UO-31 renal) of the same molecule?
**A.** 1480 nM

**Q.** And the TGI (UO-31 renal)?
**A.** 2850 nM

**Q.** And the GI50 (MDA-MB-435)?
**A.** 1870 nM

**Q.** What about the TGI (MDA-MB-435) of the same molecule?
**A.** 3670 nM

**Q.** And the GI50 (MDA-MB-231 breast)?
**A.** 1700 nM

**Q.** And the TGI (MDA-MB-231 breast)?
**A.** 3120 nM

**Q.** What about the GI50 (SK-OV-3 ovarian) of the same molecule?
**A.** 3720 nM

**Q.** What about the TGI (SK-OV-3 ovarian) of the same molecule?
**A.** 17200 nM

**Q.** And the GI50 (BT-549 breast)?
**A.** 2290 nM

**Q.** What about the TGI (BT-549 breast) of the same molecule?
**A.** 5650 nM

**Q.** And the GI50 (NCI-H226 lung)?
**A.** 25100 nM

**Q.** And the TGI (NCI-H226 lung)?
**A.** > 100000 nM

**Q.** What about the GI50 (DU-145 prostate) of the same molecule?
**A.** 4960 nM

**Q.** And the TGI (DU-145 prostate)?
**A.** > 100000 nM

**Q.** And the GI50 (KM12 colon)?
**A.** 2020 nM

**Q.** And the TGI (KM12 colon)?
**A.** 4660 nM

**Q.** And the GI50 (HS 578T breast)?
**A.** 2440 nM

**Q.** And the TGI (HS 578T breast)?
**A.** 5920 nM

**Q.** And the GI50 (M14 melanoma)?
**A.** 1820 nM

**Q.** And the TGI (M14 melanoma)?
**A.** 3680 nM

**Q.** And the GI50 (NCI-H23 lung)?
**A.** 2360 nM

**Q.** What about the TGI (NCI-H23 lung) of the same molecule?
**A.** 7020 nM

**Q.** What about the GI50 (A549 NSCLC) of the same molecule?
**A.** 2440 nM

**Q.** And the TGI (A549 NSCLC)?
**A.** > 100000 nM

**Q.** And the GI50 (OVCAR-8 ovarian)?
**A.** 1830 nM

**Q.** And the TGI (OVCAR-8 ovarian)?
**A.** 3670 nM
